Measured values as given in publication PMC9699089 (Pathogens, 2022).
Where two headings read alike, the source gives them in different places.

How the values were obtained:
[1] = tested on: Plasmodium telomeric sequence FPf8T G-quadruplex; test: FRET melting assay, FPf8T; format: binding, Plasmodium falciparum; conditions: tested at 1 μM, oligonucleotide 0.2 μM, K+ conditions
[2] = tested on: Plasmodium telomeric sequence FPf1T G-quadruplex; test: FRET melting assay, FPf1T; format: binding, Plasmodium falciparum; conditions: tested at 1 μM, oligonucleotide 0.2 μM, K+ conditions
[3] = tested on: Plasmodium falciparum CQ-sensitive strain 3D7; test: In vitro antiplasmodial activity, SYBR Green I fluorescence-based method, strain 3D7; format: cell-based; conditions: read-out: P. falciparum Strains IC50 Values 3D7
Method: (§1) The in vitro antiplasmodial activities were tested over concentrations ranging from 39 nM to 40 µM against culture-adapted Plasmodium falciparum reference strains 3D7 and W2. […] These two strains are obtained from the collection of the National Museum of Natural History (Paris, France). The parasites were cultivated in RPMI medium (Sigma Aldrich, Lyon, France) supplemented with 0.5% Albumax I (Life Technologies Corporation, Paisley, UK), hypoxanthine (Sigma Aldrich), and gentamicin (Sigma Aldrich) with human erythrocytes and were incubated at 37 °C in a candle jar, as described previously. The P. falciparum drug susceptibility test was carried out in 96-well flat bottom sterile plates in a final volume of 250 µL. After 48 h incubation period with the drugs, quantities of DNA in treated and control cultures of parasites in human erythrocytes were quantified using the SYBR Green I (Sigma Aldrich) fluorescence-based method. Briefly, after incubation, plates were frozen at -20 °C until use. Plates were then thawed for 2 h at room temperature, and 100 µL of each homogenized culture was transferred to a well of a 96-well flat bottom sterile black plate (Nunc, Inc.) that contained 100 µL of the SYBR Green I lysis buffer (2xSYBR Green, 20 mM Tris base pH 7.5, 5 mM EDTA, 0.008% w/v saponin, 0.08% w/v Triton X-100). […] Plates were incubated for 1 h at room temperature and then read on a fluorescence plate reader (Tecan, Austria) using excitation and emission wavelengths of 485 and 535 nm, respectively.

[4] = tested on: human telomeric sequence F21T G-quadruplex; test: FRET melting assay, F21T; format: binding; conditions: tested at 1 μM, oligonucleotide 0.2 μM, K+ conditions
[5] = tested on: Plasmodium falciparum CQ-resistant strain W2; test: In vitro antiplasmodial activity, SYBR Green I fluorescence-based method, strain W2; format: cell-based; conditions: read-out: P. falciparum Strains IC50 Values W2
Method: as §1

[6] = tested on: 24TTG (DNA, G4) TTGGGTTAGGGTTAGGGTTAGGGA; test: native ESI-MS; conditions: 1 mM KCl, 100 mM TMAA, 10 µM oligonucleotide, 20 µM ligand
[7] = tested on: Pf8 (DNA, G4) GGGTTCAGGGTTCAGGGTTCAGGG; test: native ESI-MS; conditions: 1 mM KCl, 100 mM TMAA, 10 µM oligonucleotide, 20 µM ligand
[8] = tested on: FPf8T (DNA, G4) GGGTTCAGGGTTCAGGGTTCAGGG; test: FRET melting; conditions: 10 mM KCl, 90 mM LiCl; 10 mM lithium cacodylate pH 7.2; 0.2 µM oligonucleotide, 2 µM compound
[9] = tested on: FPf1T (DNA, G4) GGGTTTAGGGTTTAGGGTTTAGGG; test: FRET melting; conditions: 10 mM KCl, 90 mM LiCl; 10 mM lithium cacodylate pH 7.2; 0.2 µM oligonucleotide, 2 µM compound
[10] = tested on: FtrypBT (FEBR1T) (DNA, G4) GGGCAGGGGGTGATGGGGAGGAGCCAGGG; test: FRET melting; conditions: 10 mM KCl, 90 mM LiCl; 10 mM lithium cacodylate pH 7.2; 0.2 µM oligonucleotide, 2 µM compound
[11] = tested on: F21T (DNA, G4) GGGTTAGGGTTAGGGTTAGGG; test: FRET melting; conditions: 10 mM KCl, 90 mM LiCl; 10 mM lithium cacodylate pH 7.2; 0.2 µM oligonucleotide, 2 µM compound
[12] = tested on: Pf1 (DNA, G4) GGGTTTAGGGTTTAGGGTTTAGGG; test: native ESI-MS; conditions: 1 mM KCl, 100 mM TMAA, 10 µM oligonucleotide, 20 µM ligand
[13] = tested on: FdxT (DNA, hairpin, hexaethyleneglycol linker between position 10 and 11) TATAGCTATATATAGCTATA; test: FRET melting; conditions: 10 mM KCl, 90 mM LiCl; 10 mM lithium cacodylate pH 7.2; 0.2 µM oligonucleotide, 2 µM compound
[14] = tested on: human telomeric sequence F21T G-quadruplex; test: FRET melting assay, F21T; format: binding; conditions: compound 2 μM, oligonucleotide 0.2 μM, K+ conditions
Method: (§2) These were performed with dual-labeled oligonucleotides mimicking the Plasmodium telomeric sequences FPf1T [FAM-5′(GGGTTTA)3-GGG3′-TAMRA] and FPf8T [FAM-5′(GGGTTCA)3GGG3′-TAMRA], the Trypanosoma 9 and 11 chromosomic sequence FTrypBT (also named FEBR1T) [FAM-5′[…]3′-TAMRA], the human telomeric sequence F21T [FAM-(GGGTTA)3-GGG3′-TAMRA] and the human duplex sequence FdxT [FAM5′-[…]-hexaethyleneglycol-[…]3′-TAMRA] [27, 31, 47]. The oligonucleotides were pre-folded in 10 mM lithium cacodylate buffer (pH 7.2), with 10 mM KCl and 90 mM LiCl (K^+ condition). The FAM emissions were recorded at 516 nm using a 492-nm excitation wavelength in the absence and presence of a single compound as a function of temperature (25 to 95 °C) in 96-well microplates using a Stratagene MX3000P real-time PCR device at a rate of 1 °C∙min-1. Data were normalized between 0 and 1, and the required temperature for half-denaturation of oligonucleotides corresponding to the emission value of 0.5 was taken as the Tm. Each experiment was performed in duplicate with 0.2 µM of labeled oligonucleotide and 2 µM of compound under K^+ condition. For each compound, three independent experiments were carried out.

[15] = tested on: Trypanosoma 9 and 11 chromosomic sequence FTrypBT (FEBR1T) G-quadruplex; test: FRET melting assay, FtrypBT; format: binding, Trypanosoma brucei brucei; conditions: compound 2 μM, oligonucleotide 0.2 μM, K+ conditions
Method: as §2

[16] = tested on: T. brucei brucei AnTat 1.9; test: In vitro antitrypanosomal activity, Alamar Blue assay; format: cell-based, Trypanosoma brucei brucei; conditions: Trypanosoma brucei, slender bloodstream trypomastigotes, AnTat 1.9 strain; mean +/- SD of three independent experiments; read-out: Trypanosoma brucei brucei IC50 Values Trypanos Antat 1.9
Method: The effects of the tested compounds on the growth of T. brucei brucei were assessed using an Alamar Blue® assay described by Räz et al. T. brucei brucei AnTat 1.9 ([…], Belgium) was cultured in MEM with Earle's salts, supplemented according to the protocol of Baltz et al. […] All doses were tested in duplicate. Appropriate controls treated with solvents 0.9% NaCl or DMSO or with suramin, pentamidine, eflornithine, and fexinidazole (reference drugs purchased from Sigma Aldrich and Fluorochem, UK) were added to each set of experiments. After 69 h incubation period at 37 °C, 10 μL of the viability marker Alamar Blue (Fisher) was added to each well, and the plates were incubated for 5 h. The plates were read in a PerkinElmer ENSPIRE (Germany) microplate reader using an excitation wavelength of 530 nm and an emission wavelength of 590 nm.

[17] = tested on: L. donovani (MHOM/IN/00/DEVI) promastigotes; test: In vitro antileishmanial activity on promastigotes, MTT assay; format: cell-based; conditions: Leishmania donovani, 72 h incubation, mean +/- SD of three independent experiments
Method: L. donovani (MHOM/IN/00/DEVI) used in this study was provided by the CNR Leishmania (Montpellier, France). The effects of the tested compounds on the growth of L. donovani (MHOM/IN/00/DEVI) promastigotes were assessed by MTT assay. Briefly, promastigotes in log-phase in Schneider’s medium supplemented with 20% fetal calf serum (FCS), 2 mM L-glutamine and antibiotics (100 U/mL penicillin and 100 µg/mL streptomycin), were incubated at an average density of 10^6 parasites/mL in sterile 96-well plates with various concentrations of compounds previously dissolved in DMSO (final concentration less than 0.5% v/v), in duplicate. […] Duplicate assays were performed for each sample. After the 72 h incubation period at 27 °C, parasite metabolic activity was determined. Each well was microscopically examined for precipitate formation. To each well was added 10 µL of 10 mg/mL MTT [3-(4,5-dimethylthiazol-2-yl)-2,5-diphenyltetrazolium bromide)] solution followed by 4 h incubation time. The enzyme reaction was stopped by addition of 100 µL of 50% isopropanol/10% sodium dodecyl sulfate. Plates were vigorously shaken (300 rpm) for 10 min, and the absorbance was measured at 570 nm with 630 nm as reference wavelength in a BIOTEK ELx808 Absorbance Microplate Reader (Agilent Technologies, Les Ulis, France). […] IC50 of the parasite’s growth (half maximal inhibitory concentration or IC50 values) were then calculated from the obtained experimental results using a previously described regression program. IC50 values were calculated from three independent experiments.

[18] = tested on: Plasmodium telomeric sequence FPf1T G-quadruplex; test: FRET melting assay, FPf1T; format: binding, Plasmodium falciparum; conditions: compound 2 μM, oligonucleotide 0.2 μM, K+ conditions
Method: as §2

[19] = Cytotoxicity evaluation, MTT assay; format: cell-based, human; conditions: human
Method: These cells are a commonly used human hepatocarcinoma-derived cell line that has characteristics similar to those of primary hepatocytes. These cells express many hepatocyte-specific metabolic enzymes, thus enabling the cytotoxicity of tested product metabolites to be evaluated. […] Duplicate assays were performed for each sample. Each well was microscopically examined for precipitate formation before the medium was aspirated from the wells. After aspiration, 100 µL of MTT solution (0.5 mg/mL in medium without FCS) were then added to each well. […] The MTT solution was removed, and DMSO (100 µL) was added to dissolve the resulting blue formazan crystals. Plates were shaken vigorously (300 rpm) for 5 min. The absorbance was measured at 570 nm with 630 nm as reference wavelength in a BIO-TEK ELx808 Absorbance Microplate Reader. DMSO was used as blank and doxorubicin (Sigma Aldrich) as positive control. Cell viability was calculated as percentage of control (cells incubated without compound). The CC50 was determined from the dose-response curve using TableCurve 2D V5.0 software (Systat Software, Palo Alto, CA, USA).

[20] = tested on: human duplex sequence FdxT; test: FRET melting assay, duplex control FdxT; format: binding; conditions: compound 2 μM, oligonucleotide 0.2 μM, K+ conditions
Method: as §2

[21] = tested on: Plasmodium telomeric sequence FPf8T G-quadruplex; test: FRET melting assay, FPf8T; format: binding, Plasmodium falciparum; conditions: compound 2 μM, oligonucleotide 0.2 μM, K+ conditions
Method: as §2

[22] = CQ-sensitive strain 3D7, 48 h incubation, mean of three independent experiments
[23] = CQ-resistant strain W2, 48 h incubation, mean of three independent experiments

SMILES: OC(c1cc(C(F)(F)F)nc2c(C(F)(F)F)cccc12)C1CCCCN1 (centres unmarked) [MQ, mefloquine]
- ΔTm FPf8T [1]: 6.6 °C
- ΔTm FPf1T [2]: 3.1 °C
- IC50 [3, 22]: 60 ± 3 nM
- ΔTm F21T [4]: 2.6 °C
- IC50 [5, 23]: 16 ± 2 nM

SMILES: CCN(CC)CCCC(C)Nc1ccnc2cc(Cl)ccc12 (centres unmarked) [CQ, chloroquine]
- ΔTm FPf8T [1]: 2.4 °C
- ΔTm FPf1T [2]: 1.9 °C
- IC50 ([3]; 3D7, 48 h): 110 ± 10 nM
- ΔTm F21T [4]: 2.4 °C
- IC50 ([5]; W2, 48 h): 400 ± 40 nM

SMILES: CN(C)CCCCNCc1cc(-c2ccccc2)c2ccc3c(-c4ccccc4)cc(CNCCCCN(C)C)nc3c2n1
- Kd1 ([6]; site 1 of 2 (Kd2 28 µM)): 44 µM
- Kd1 ([7]; site 1 of 2 (Kd2 50 µM)): 3 µM

SMILES: CN(C)CCCCCNCc1cc(-c2ccccc2)c2ccc3c(-c4ccccc4)cc(CNCCCCCN(C)C)nc3c2n1
- ΔTm [8]: 20.5 ± 0.2 °C
- ΔTm [9]: 18.8 ± 0.2 °C
- ΔTm [10]: 14.7 ± 0.7 °C
- ΔTm [11]: 18.1 ± 0.9 °C
- Kd1 ([6]; site 1 of 2 (Kd2 62 µM)): 38 µM
- Kd1 ([7]; site 1 of 2 (Kd2 16 µM)): 3 µM
- Kd1 ([12]; site 1 of 2 (Kd2 24 µM)): 8 µM
- ΔTm [13]: 1.8 ± 0.2 °C

SMILES: c1ccc(-c2cc(CNCCN3CCCCC3)nc3c2ccc2c(-c4ccccc4)cc(CNCCN4CCCCC4)nc23)cc1 [Compound 1j]
- ΔTm F21T [14]: 7.7 °C
- ΔTm FtrypBT [15]: 7.2 °C
- IC50 [16]: 200 ± 20 nM
- IC50 [17]: 2520 ± 200 nM
- IC50 [3, 22]: 1590 ± 590 nM
- ΔTm FPf1T [18]: 5.6 °C
- CC50 at 72 h [19]: 1640 ± 140 nM
- ΔTm FdxT [20]: 0.2 °C
- IC50 [5, 23]: 2600 ± 550 nM
- ΔTm FPf8T [21]: 7.3 °C

SMILES: c1ccc(-c2cc(CNCCc3ccncc3)nc3c2ccc2c(-c4ccccc4)cc(CNCCc4ccncc4)nc23)cc1 [Compound 1o]
- ΔTm F21T [14]: 3.9 °C
- ΔTm FtrypBT [15]: 5.3 °C
- IC50 [16]: 210 ± 10 nM
- IC50 [17]: 2690 ± 600 nM
- IC50 [3, 22]: 730 ± 190 nM
- ΔTm FPf1T [18]: 2.9 °C
- CC50 at 72 h [19]: 19100 ± 2110 nM
- ΔTm FdxT [20]: −0.3 °C
- IC50 [5, 23]: 1870 ± 580 nM
- ΔTm FPf8T [21]: 5.2 °C

SMILES: c1ccc(-c2cc(CNCCCN3CCCC3)nc3c2ccc2c(-c4ccccc4)cc(CNCCCN4CCCC4)nc23)cc1
- Kd1 ([6]; site 1 of 2 (Kd2 18 µM)): 34 µM
- Kd1 ([7]; site 1 of 2 (Kd2 59 µM)): 2 µM
- Kd1 ([12]; site 1 of 2 (Kd2 37 µM)): 10 µM
- ΔTm [13]: 0.7 ± 0.2 °C
